From patent publication US20090270359A1, “SUBSTITUTED PYRAZOLE DERIVATIVES” (TAKEDA PHARMACEUTICAL COMPANY LIMITED, priority 2007, published 2009) come the findings set out here.

Assay [1] deals with T1, LNCaP type mutant androgen receptor (AR) (Homo sapiens, UniProt P10275, T878A).
T1 sequence (P10275 1-920 T878A): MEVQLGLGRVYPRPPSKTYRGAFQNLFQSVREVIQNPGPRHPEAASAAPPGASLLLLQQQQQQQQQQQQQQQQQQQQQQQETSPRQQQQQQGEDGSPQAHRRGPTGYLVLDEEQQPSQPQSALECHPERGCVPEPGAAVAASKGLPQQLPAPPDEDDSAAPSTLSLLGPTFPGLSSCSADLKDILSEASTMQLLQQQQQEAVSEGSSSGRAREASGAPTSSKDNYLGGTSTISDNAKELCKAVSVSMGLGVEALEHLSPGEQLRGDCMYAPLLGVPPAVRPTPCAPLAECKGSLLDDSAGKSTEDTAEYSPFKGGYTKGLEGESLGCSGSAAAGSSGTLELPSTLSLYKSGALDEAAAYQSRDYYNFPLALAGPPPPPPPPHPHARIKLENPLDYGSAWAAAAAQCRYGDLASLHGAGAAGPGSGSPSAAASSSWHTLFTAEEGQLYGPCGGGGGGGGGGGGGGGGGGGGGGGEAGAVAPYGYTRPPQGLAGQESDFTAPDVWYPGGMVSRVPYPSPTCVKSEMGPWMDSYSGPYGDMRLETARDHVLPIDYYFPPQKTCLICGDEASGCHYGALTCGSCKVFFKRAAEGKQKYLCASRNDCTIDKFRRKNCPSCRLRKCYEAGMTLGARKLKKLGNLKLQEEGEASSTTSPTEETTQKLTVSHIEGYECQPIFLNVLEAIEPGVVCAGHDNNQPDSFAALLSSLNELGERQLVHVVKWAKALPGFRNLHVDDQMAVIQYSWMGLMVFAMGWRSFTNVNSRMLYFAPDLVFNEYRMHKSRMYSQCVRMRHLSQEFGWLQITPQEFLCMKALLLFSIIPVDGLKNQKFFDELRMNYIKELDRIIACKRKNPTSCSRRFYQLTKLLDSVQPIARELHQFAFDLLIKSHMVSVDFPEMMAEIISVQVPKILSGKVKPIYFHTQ
As to the kind of experiment: AR-binding inhibition test, LNCaP type (radio-labeled Mibolerone displacement). The settings on record: compound 1 μM; 3 nM radio-labeled Mibolerone; 4° C., 3 hours; dextran/charcoal method; read-out: Inhibitory rate (%) at 1 μM, LNCaP type. As to the method: (§1) To a solution of wild type or LNCaP type mutant androgen receptor (AR) was added 3 nM radio-labeled Mibolerone and final concentration 1 μM of the compound. The mixture was incubated at 4° C. for 3 hours, and B (Bound) and F (Free) Mibolerones were separated by the dextran/charcoal method. The label count of B was measured and the inhibition rate of the compound was calculated.

The target in assay [2] is T2, wild type androgen receptor (AR) (Homo sapiens, UniProt P10275).
T2 sequence (P10275 1-920): T1 sequence (P10275 1-920 T878A) with A878T
Put plainly: AR-binding inhibition test, wild type (radio-labeled Mibolerone displacement). The settings on record: compound 1 μM; 3 nM radio-labeled Mibolerone; 4° C., 3 hours; dextran/charcoal method; read-out: Inhibitory rate (%) at 1 μM, wild type. As to the method: as §1

For assay [3], the system named is Human prostate cancer cells LNCaP-FGC. Put plainly: Prostate specific antigen (PSA) production inhibition test in prostate cancer cells. Format: cell-based. Particulars: Homo sapiens, 72 h; compound 1 μM; testosterone 0.1 ng/m; PSA in culture supernatant after 3 days by ELISA; testosterone non-addition group 100%, addition group 0%; read-out: Inhibitory rate (%) at 1 μM (PSA production suppression rate). How it is done: Human prostate cancer cells LNCaP-FGC were plated in a 24 well plate at 40000 cells/1000 μL/well, and testosterone (final concentration 0.1 ng/m) and the compound (1 μM) were added the next day. The concentration of PSA in the culture supernatant after 3 days from the addition was measured by ELISA, and the PSA production suppression rate was calculated with the testosterone non-addition group as 100% and the testosterone addition group as 0%.

Another assay concerns the target T3, mutant AR (W741C) (Homo sapiens, UniProt P10275, W742C).
T3 construct: expressed in transfected cells; host or cells: Cos-7
T3 sequence (P10275 1-920 W742C): T1 sequence (P10275 1-920 T878A) with W742C, A878T
As to the kind of experiment: AR transcription inhibition test (luciferase reporter in Cos-7 cells). The settings on record: compound 1 μM, 0.1 μM DHT, luciferase activity after 24 hr, relative to control (0.1 μM DHT), read-out: Inhibitory rate (%) of mutant AR at 1 μM. Type of assay: cell-based. As to the method:
Cos-7 cells (5,000,000 cells) were inoculated to a flask, and incubated in a culture medium (DMEM+10% Dextran Charcoal (DCC)−Fetal Bovine Serum (FBS) and 2 mM glutamine) for 24 hours. Then, a vector DNA harboring mutant AR (W741C) and a vector DNA containing a luciferase gene bound at the downstream of an androgen responsive promoter were cotransfected by a liposome method. After 4 hr, the medium was changed and, after culture for 3 hr, DHT (dihydrotestosterone) at the final concentration of 0.1 μM and the compound at the final concentration of 1 μM were added. After further culture for 24 hr, the luciferase activity was measured, and the AR transcription inhibitory activity of the compound was examined.

Molecules are shown by their SMILES. Changes are numbered by the printed parent chain.

As for `Cc1nn(Cc2ccc(C(N)=O)cc2)c(C)c1-c1ccc(C#N)c(Cl)c1F` [Example 337, 4-{[4-(3-chloro-4-cyano-2-fluorophenyl)-3,5-dimethyl-1H-pyrazol-1-yl]methyl}benzamide], the inhibition at 1 µM in assay [1] amounted to 72%; in assay [2], 71%; in assay [3], 104%; at mutant AR (W741C), 36%.

With `Cc1nn(Cc2ccc(C(N)=O)nc2)c(C)c1-c1ccc(C#N)c(Cl)c1` [Example 105, 5-{[4-(3-chloro-4-cyanophenyl)-3,5-dimethyl-1H-pyrazol-1-yl]methyl}pyridine-2-carboxamide], the inhibition at 1 µM was 75% in assay [1], 66% in assay [2], 109% in assay [3] and 32% on mutant AR (W741C).

`Cc1nn(Cc2ccc(F)c(C(N)=O)c2)c(C)c1-c1ccc(C#N)c(Cl)c1` [Example 77, 5-{[4-(3-chloro-4-cyanophenyl)-3,5-dimethyl-1H-pyrazol-1-yl]methyl}-2-fluorobenzamide]: the inhibition at 1 µM in assay [1] came to 68%; in assay [2] it was 78%; in assay [3], 102%; at mutant AR (W741C), 92%.
